# In patent US11109593B2, “Isoxazolin-5-one derivative and herbicide containing same as active ingredient” (HOKKO CHEMICAL INDUSTRY CO., LTD., priority 2017, dated 2021):
# Key:
# Format in all cases: in vivo
# [1] = system: broad leaf weeds (Lindernia pyxidaria and Monochoria vaginalis); test: Test Example 2: herbicidal effect test by treatment during growing period in paddy rice cultivation (seven days after seeding); conditions: 120 g/10a active ingredient, assessed 14 days after treatment, dry weight vs untreated area; for pest or weed control at 1200 g/ha: 336 h
# In short: (§1)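 Post-emergence paddy water application: compounds were formulated as emulsions, diluted and dropped into flooded pots seven days after sowing at a rate equivalent to 120 g per 10 ares. Efficacy was taken as dry-weight reduction relative to untreated controls after 14 days.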
# [2] = system: Scirpus juncoides; test: as above; conditions: 120 g/10a active ingredient, assessed 14 days after treatment, dry weight vs untreated area
# In short: as §1
# [3] = system: Echinochloa crus-galli; test: as above; conditions: 120 g/10a active ingredient, assessed 14 days after treatment, dry weight vs untreated area
# In short: as §1
# [4] = system: broad leaf weeds (Lindernia pyxidaria and Monochoria vaginalis); test: Test Example 1: herbicidal effect test by treatment of rice paddy soil (immediately after seeding); conditions: 120 g/10a active ingredient, dry weight vs untreated area, 14 days after treatment; for pest or weed control at 1200 g/ha: 336 h
# In short: (§2)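 Values are herbicidal rates (%) derived from average plant dry weight in treated versus untreated pots 14 days after treatment, run in duplicate. Treatment was a water-diluted emulsion dropped into flooded paddy soil right after sowing, at 120 g active ingredient per 10 ares.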
# [5] = system: Scirpus juncoides; test: as above; conditions: 120 g/10a active ingredient, dry weight vs untreated area, 14 days after treatment
# In short: as §2
# [6] = system: Echinochloa crus-galli; test: as above; conditions: 120 g/10a active ingredient, dry weight vs untreated area, 14 days after treatment
# In short: as §2
# [7] = system: Echinochloa crus-galli; test: Test Example 4: herbicidal effect test by treatment of leave and stem in dry field farming (seven days after seeding); conditions: 120 g/10a active ingredient, emulsion sprayed seven days after seeding, evaluated 14 days after treatment
# In short: (§3)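 Duplicate pots were scored 14 days post-spray by dry weight, herbicidal rate = {1 − treated/untreated average dry weight} × 100. The water-diluted emulsion, equivalent to 120 g active ingredient per 10 ares in 100 L, was applied seven days after sowing 20 seeds each into the upper 1 cm of alluvial soil.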
# [8] = system: Amaranthus viridis; test: as above; conditions: 120 g/10a active ingredient, emulsion sprayed seven days after seeding, evaluated 14 days after treatment
# In short: as §3
# [9] = system: southern crabgrass; test: as above; conditions: 120 g/10a active ingredient, emulsion sprayed seven days after seeding, evaluated 14 days after treatment
# In short: as §3
# [10] = system: Chenopodium album; test: as above; conditions: 120 g/10a active ingredient, emulsion sprayed seven days after seeding, evaluated 14 days after treatment
# In short: as §3
# [11] = system: Echinochloa crus-galli; test: Test Example 3: herbicidal effect test by treatment of dry field farming soil (one day after seeding); conditions: 120 g/10a active ingredient, evaluated 14 days after treatment
# In short: (§4)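 Dry-field alluvium pots; weed seeds incorporated in top 1 cm; soil spray of diluted emulsion 1 d after seeding, 120 g a.i./10 a in 100 L/10 a. Readout: % reduction of dry weight vs untreated, day 14, duplicates.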
# [12] = system: Amaranthus viridis; test: as above; conditions: 120 g/10a active ingredient, evaluated 14 days after treatment
# In short: as §4
# [13] = system: southern crabgrass; test: as above; conditions: 120 g/10a active ingredient, evaluated 14 days after treatment
# In short: as §4
# [14] = system: Chenopodium album; test: as above; conditions: 120 g/10a active ingredient, evaluated 14 days after treatment
# In short: as §4
SMILES,Herbicidal rate (%) Lindernia pyxidaria ([1]; Lindernia pyxidaria),Herbicidal rate (%) Monochoria vaginalis ([1]; Monochoria vaginalis),Herbicidal rate (%) Scirpus juncoides [2],Herbicidal rate (%) Echinochloa crus-galli [3],Herbicidal rate (%) Lindernia pyxidaria ([4]; Lindernia pyxidaria),Herbicidal rate (%) Monochoria vaginalis ([4]; Monochoria vaginalis),Herbicidal rate (%) Scirpus juncoides [5],Herbicidal rate (%) Echinochloa crus-galli [6],"herbicidal effect (herbicidal rate), Echinochloa crus-galli [7]","herbicidal effect (herbicidal rate), Amaranthus viridis [8]","herbicidal effect (herbicidal rate), southern crabgrass [9]","herbicidal effect (herbicidal rate), Chenopodium album [10]","herbicidal rate, Echinochloa crus-galli [11]","herbicidal rate, Amaranthus viridis [12]","herbicidal rate, southern crabgrass [13]","herbicidal rate, Chenopodium album [14]",other results
Cc1c(Cc2ccccc2NS(=O)(=O)C(F)(F)F)c(=O)on1CC1(C)CC1 [Compound 1-145],60%,80%,80%,90%,100%,100%,100%,100%,90%,0%,50%,40%,90%,40%,80%,40%,–
"Cc1c(Cc2ccccc2N(S(=O)(=O)C(F)(F)F)S(=O)(=O)C(F)(F)F)c(=O)on1C(C)(C)C [Compound 1-963, N-[2-[(2-tert-butyl-3-methyl-5-oxo-isoxazol-4-yl)methyl]phenyl]-1,1,1-trifluoro-N-(trifluoromethylsulfonyl)methanesulfonamide]",–,–,–,–,–,–,–,–,–,–,–,–,–,–,–,–,"pest or weed control at 1200 g/ha ([1]; Lindernia pyxidaria, read-out: herbicidal rate (%) Lindernia pyxidaria): 90%; pest or weed control at 1200 g/ha ([1]; Monochoria vaginalis, read-out: herbicidal rate (%) Monochoria vaginalis): 90%; pest or weed control at 1200 g/ha ([2]; Schoenoplectiella juncoides, 336 h, read-out: herbicidal rate (%) Scirpus juncoides): 90%; pest or weed control at 1200 g/ha ([3]; Echinochloa crus-galli, 336 h, read-out: herbicidal rate (%) Echinochloa crus-galli): 90%; pest or weed control at 1200 g/ha ([4]; Monochoria vaginalis, read-out: Herbicidal rate (%) Monochoria vaginalis): 90%; pest or weed control at 1200 g/ha ([4]; in Lindernia, Lindernia pyxidaria, read-out: Herbicidal rate (%) Lindernia pyxidaria): 90%; pest or weed control at 1200 g/ha ([5]; in Schoenoplectiella juncoides, 336 h, read-out: Herbicidal rate (%) Scirpus juncoides): 90%; pest or weed control at 1200 g/ha ([6]; in Echinochloa crus-galli, 336 h, read-out: Herbicidal rate (%) Echinochloa crus-galli): 90%; pest or weed control at 1200 g/ha ([7]; Echinochloa crus-galli, 336 h, read-out: herbicidal effect (herbicidal rate), Echinochloa crus-galli): 90%; pest or weed control at 1200 g/ha ([8]; Amaranthus viridis, 336 h, read-out: herbicidal effect (herbicidal rate), Amaranthus viridis): 40%; pest or weed control at 1200 g/ha ([9]; Digitaria ciliaris, 336 h, read-out: herbicidal effect (herbicidal rate), southern crabgrass): 90%; pest or weed control at 1200 g/ha ([10]; Chenopodium album, 336 h, read-out: herbicidal effect (herbicidal rate), Chenopodium album): 40%; pest or weed control at 1200 g/ha ([11]; Echinochloa crus-galli, 336 h, read-out: herbicidal rate, Echinochloa crus-galli): 90%; pest or weed control at 1200 g/ha ([12]; Amaranthus viridis, 336 h, read-out: herbicidal rate, Amaranthus viridis): 90%; pest or weed control at 1200 g/ha ([13]; Digitaria ciliaris, 336 h, read-out: herbicidal rate, southern crabgrass): 90%; pest or weed control at 1200 g/ha ([14]; Chenopodium album, 336 h, read-out: herbicidal rate, Chenopodium album): 90%"
Cc1c(Cc2ccccc2N(C(=O)OCC(C)C)S(=O)(=O)C(F)(F)F)c(=O)on1C [Compound 1-666],90%,90%,90%,100%,80%,100%,90%,100%,90%,40%,70%,50%,90%,0%,100%,40%,–
CCC(C)Cn1oc(=O)c(Cc2ccccc2NS(=O)(=O)C(F)(F)F)c1C (stereo not drawn) [Compound 1-112],80%,80%,90%,90%,90%,90%,90%,100%,90%,40%,50%,0%,90%,60%,90%,80%,–
CCC(C)n1oc(=O)c(Cc2ccccc2N(S(C)(=O)=O)S(=O)(=O)C(F)(F)F)c1C (stereo not drawn) [Compound 1-890],90%,90%,90%,90%,90%,90%,90%,90%,90%,40%,90%,40%,90%,90%,90%,90%,–
CCC(C)n1oc(=O)c(Cc2ccccc2N(C(C)=O)S(=O)(=O)C(F)(F)F)c1C (stereo not drawn) [Compound 1-294],90%,90%,90%,90%,90%,90%,90%,90%,90%,40%,90%,40%,90%,90%,90%,90%,–
